IC50 data for two compounds are collected here from publication PMC10342075, “Blunting Neuroinflammation by Targeting the Immunoproteasome with Novel Amide Derivatives” (International Journal of Molecular Sciences, 2023).

In assay [1] the target is T1, β5i subunit of 20S immunoproteasome (LMP7) (Homo sapiens, UniProt P28062).
T1 construct: gene PSMB8; human 20S immunoproteasome isolated from human spleen; with 20S immunoproteasome (other subunits)
T1 sequence (P28062 73-276): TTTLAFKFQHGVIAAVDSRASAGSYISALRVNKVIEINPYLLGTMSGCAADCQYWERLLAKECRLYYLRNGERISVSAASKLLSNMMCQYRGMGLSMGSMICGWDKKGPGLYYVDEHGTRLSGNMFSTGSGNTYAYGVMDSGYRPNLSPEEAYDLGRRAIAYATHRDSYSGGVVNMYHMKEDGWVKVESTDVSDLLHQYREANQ
Description: fluorogenic Suc-Leu-Leu-Val-Tyr-AMC hydrolysis (chymotrypsin-like activity) with purified human […] immunoproteasome. It is filed as biochemical.

Assay [2] deals with T2, β5c subunit of 20S proteasome (Homo sapiens, UniProt P28074).
T2 construct: gene PSMB5; human 20S proteasome isolated from human erythrocytes; with 20S proteasome (other subunits)
T2 sequence (P28074 60-263): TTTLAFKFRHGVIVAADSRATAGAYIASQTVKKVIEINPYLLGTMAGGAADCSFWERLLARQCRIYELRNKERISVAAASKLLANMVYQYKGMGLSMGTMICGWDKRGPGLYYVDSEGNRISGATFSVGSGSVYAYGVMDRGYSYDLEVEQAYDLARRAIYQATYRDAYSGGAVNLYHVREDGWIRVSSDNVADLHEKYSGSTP
The assay can be described thus: fluorogenic Suc-Leu-Leu-Val-Tyr-AMC hydrolysis (chymotrypsin-like activity) with purified human […] proteasome. The format is biochemical.

Take `O=C(NCCc1ccccc1)[C@H](CCc1ccccc1)n1ccccc1=O` [KJ3]: the midpoint of inhibition in assay [1], the IC50, lay at 7.61 ± 0.76 µM. `O=C(NCc1ccccc1)[C@H](Cc1ccccc1)n1ccccc1=O` [KJ9]: the figures for the IC50 in assay [2] and in assay [1] were 6.9 ± 0.18 µM and 16.5 ± 0.35 µM, respectively.

By IC50 is commonly meant the concentration needed to halve the response being measured.
